Results from patent US20210308077A1, “COMBINATIONS INCLUDING BETA-ADRENORECEPTOR AGONISTS FOR TREATMENT OF PARKINSON`S DISEASE AND MOVEMENT DISORDERS” (The Brigham and Women`s Hospital, Inc., priority 2017, published 2021).
Entries after “also recorded” stand apart in the source; their conditions may differ.

Assays:
[1] = test system: α-synuclein protein and mRNA in substantia nigra; assay: placebo-controlled trial in wild-type mice, Snca expression in substantia nigra; format: in vivo, mouse
Description: Twenty C57BL/6J male mice (8 weeks old) (Jackson Laboratory, Bar Harbor Me.) were used for the placebo-controlled trial. Mice were exposed to a 12-hour light and 12-hour dark cycle, maintained at a constant temperature of 22° C., and were cared for in accordance with the National Institutes of Health Guide for the Care and Use of Laboratory Animals. Clenbuterol was purchased from Sigma (St. Louis, Mo.). Clenbuterol (10 mg/kg, injection volume 10 ml/kg) dissolved in saline was administered to mice (N=10) intraperitoneally. Saline was administered as a vehicle treatment (N=10). Mice were euthanized by CO224 hours post-injection. Brains were removed and snap frozen immediately in dry ice. Further dissections were performed on the frozen tissue to obtain substantia nigra regions. Tissue was then stored at −80° C. until mRNA or protein extraction was performed.
(§1) Total RNA from flash-frozen mice brain tissue, rodent primary cells, human neuroblastoma cells and iPSC-derived neuronal cells was isolated using TRIzol® (Life Technologies) following the manufacturer's protocol. RNA concentration was measured using NanoDrop spectrophotometer (Thermo Fisher Scientific, Wilmington, De.). 2 μg of total RNA was reverse transcribed into cDNA using the High Capacity cDNA Reverse Transcription Kit from Applied Biosystems. Quantitative PCR was performed using TaqMan Universal PCR Master Mix (Applied Biosystems) on an ABI 7900HT instrument (Applied Biosystems) as described previously (31). […] Expression values were analyzed using the comparative threshold cycle method (31).
Protein lysis buffer containing 320 mM sucrose, 5 mM NaF, 1 mM Na3VO4, 10 mM Tris (pH 7.4), 1 mM EGTA, and 1 mM EDTA was used for mice brain tissue lysis. […] Total protein concentrations were determined by BCA assay (Thermo Scientific) according to the manufacturer's instructions. Total α-synuclein was quantified using an α-synuclein-specific sandwich ELISA. […]

[2] = pharmacokinetics mouse study (plasma and brain, LC-MS/MS); format: in vivo
Description: The clenbuterol pharmacokinetic (PK) study was done in wild-type C57BL/6J male mice by ChemPartner Co., LTD in Shanghai. The study was done with 4 groups of four mice; one control group and three treatment groups with clenbuterol administered via intraperitoneal injection at dosages of 1, 5 and 10 mg/kg once every 24 hours. Following completion of the administration schedule, blood samples were collected at various time points (e.g. 0.25, 2, 8, and 24 hours), from the four mice per group per time point (final time point of 24 hours post injection). Mice were sacrificed following each blood collection and brains were removed and snap frozen. Substantia nigra was utilized for SNCA mRNA and protein analysis, whereas the other portions were used for PK studies. Plasma and brain samples were analyzed by LC-MS/MS for compound concentration at each of three concentrations and at each time point. Standard pharmacokinetic parameters (e.g. AUClast, AUCINF, terminal elimination half-life (t1/2), clearance, volume of distribution, time at maximum observed plasma concentration, etc.) were determined in both plasma and brain tissueby WinNonlin V 6.2 statistics software (Pharsight Corporation, California, USA) using a non-compartmental model.

SNCA mRNA = assay: SNCA expression in SNCA-triplication iPSC-derived neurons; format: cell-based, human; conditions: SNCA-triplication iPSC-derived neurons cultured for 8 weeks, 20 μM for three days
Description: To begin neural differentiation, NPCs were dissociated with accutase and re-plated on matrigel-coated T75 flasks (CytoOne). The next day medium was fully changed to Neural Differentiation (ND) medium, which is NB medium supplemented with recombinant human BDNF and GNDF (both at 10 ng/mL; R&D Systems) and dibutyryl cyclic AMP (500 μM; Sigma), and without FGF-2. Thereafter, media was half-changed every other day. On day 7-9, differentiating neurons were gently dissociated to single cell suspension and then resuspended in pre-chilled Hank's balanced salt solution (HBSS; Gibco/Life Technologies) supplemented with 0.1% bovine serum albumin (Gibco/Life Technologies). After a wash step, cells were plated on 6- or 24-well plates pre-coated with poly-ornithine and laminin (BD Biocoat). […]
as §1, with “2 μg of total RNA was reverse transcribed into cDNA using the High Capacity cDNA Reverse Transcription Kit from Applied Biosystems.” left out

[3] = 10 mg/kg intraperitoneal, 24 hours, vs saline, n=10 per group

CC(C)(C)NCC(O)c1cc(Cl)c(N)c(Cl)c1 (stereo not shown) [clenbuterol]
endogenous α-synuclein mRNA in substantia nigra [1, 3]: lowered
endogenous α-synuclein protein in substantia nigra [1, 3]: lowered
α-synuclein protein in substantia nigra by Western blotting ([1]; anti-α-synuclein antibodies 2F12 and C-20): confirmed by Western blotting
brain concentration ([2]; C57BL/6J mice, 10 mg/kg intraperitoneal vs 1 and 5 mg/kg): highest
brain/plasma ratio ([2]; C57BL/6J mice, 1, 5, or 10 mg/kg intraperitoneal, 24 hours): increased with doses of 1, 5, or 10 mg of drug per kilogram body weight; also recorded: highest brain/plasma ratio
blood-brain barrier crossing ([2]; wild type C57BL/6J mice, intraperitoneal): crossed the blood-brain barrier
SNCA expression (SNCA mRNA): reduced
